From patent US10604510B2, “Solid forms comprising (1E, 4E)-2-amino-N,N-dipropyl-8-(4-(pyrrolidine-1-carbonyl)phenyl)-3H-benzo[B]azepine-4-carboxami compositions thereof, and uses thereof” (Celgene Corporation, priority 2014, dated 2020) come the findings set out here.

Converted amounts (≈) assume the structure as drawn.

The nature of data set [1]: Solubility of Forms A and G after 40 min stirring. Type of data set: physicochemical. On the procedure:
For purity estimation and determination of the solubility in solution a generic in-house HPLC method was used. HPLC was performed using a Phenomenex Luna 3 μm C18 (50×4.6 mm) column and detected with a DAD detector, recording at 214 nm.

A short description of data set [2]: Form stability analysis (solubility and concurrent slurry experiments). It counts as physicochemical. On the procedure: As form conversions tend to happen faster at elevated temperature at 60° C., slurries were performed for the starting material used for the screening (A/G mixture) during 18 h at 60° C.
Forms J and C were identified as potential non-solvates and their stability was investigated. Form J could be eliminated as stable form because, in part, the DSC (FIG. 36) indicated an exothermic form conversion around 140° C. This leads to a form melting at 210° C., which likely represents Form G and therefore represents a monotropic relation.
Form C was obtained by drying a Form C/J mixture. The XRPD pattern appeared to contain traces of reflexes of Form J. Slurries of Form C seeded with Form A (15% w/w) in ethanol and acetone were performed during 18 h. The resulting solid was pure Form A. This also confirmed the exothermic event observed in DSC (FIG. 16) which indicated a monotropic relation to the form formed in DSC around 130° C. (melting point 210° C., which, as described herein, is likely Form G).

The term Solubility denotes the dissolved amount per volume that the medium holds. On to `CCCN(CCC)C(=O)C1=Cc2ccc(-c3ccc(C(=O)N4CCCC4)cc3)cc2N=C(N)C1` [Form G, (1E, 4E)-2-amino-N,N-dipropyl-8-(4-(pyrrolidine-1-carbonyl)phenyl)-3H-benzo[b]azepine-4-carboxamide], for which the Solubility in data set [1] (EtOH, 0 ° C.) was 7600 µg/mL (≈ 16.6 mM); in data set [1] (EtOH, 22 ° C.), 15800 µg/mL (≈ 34.5 mM); in data set [1] (EtOH, 60 ° C.) it was 36900 µg/mL (≈ 80.5 mM); in data set [1] (MEK, 0 ° C.) it was 2600 µg/mL (≈ 5.67 mM); in data set [1] (MEK, 22 ° C.), 3100 µg/mL (≈ 6.76 mM); in data set [1] (MEK, 60 ° C.), 4600 µg/mL (≈ 10 mM). In data set [2], the “stability relative to other crystalline forms” value was “less stable at 25 °C in comparison to Form A”.
